DC50 and Dmax data for 23 compounds are collected here from patent publication US11897862B2 (Gilead Sciences, Inc., priority 2022, dated 2024).

The target of one test is T1, IKZF1 (Homo sapiens, UniProt Q13422+Q96SW2).
T1 construct: expressed in transfected cells
Put plainly: HEK293 HiBiT in vitro degradation of IKZF1. The test is classed as cell-based. To be noted: for DC50: HEK293 HiBiT, 18-24 hr incubation, normalized to DMSO control, read-out: IKZF1 EC50; for Dmax: HEK293, HEK293 HiBiT, maximum degradation at the highest concentration tested. The procedure, abridged: (§1)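 Flp-In T-REx HEK293 pools stably expressing C-terminal HiBiT-tagged IKZF1, IKZF2 or SALL4 (single-copy, Tet-On), induced overnight with […] doxycycline. Cells exposed to serially diluted compounds for 18-24 hr at 37° C. Nano-Glo lytic luminescence gave EC50 and Dmax.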
On the technique in general: The HiBiT peptide binds its large partner to form an active luciferase.

The target of the next test is IKZF2 (Homo sapiens, UniProt Q96SW2+Q9UKS7). Put plainly: HEK293 HiBiT in vitro degradation of IKZF2. The test is classed as cell-based. Set-up: expressed in transfected cells. The following applies: for Dmax: HEK293, HEK293 HiBiT, maximum degradation at the highest concentration tested; for DC50: HEK293 HiBiT, 18-24 hr incubation, normalized to DMSO control, read-out: IKZF2 EC50. In outline: as §1
IKZF2, sequence (Q9UKS7 1-500 isoform Q9UKS7-2): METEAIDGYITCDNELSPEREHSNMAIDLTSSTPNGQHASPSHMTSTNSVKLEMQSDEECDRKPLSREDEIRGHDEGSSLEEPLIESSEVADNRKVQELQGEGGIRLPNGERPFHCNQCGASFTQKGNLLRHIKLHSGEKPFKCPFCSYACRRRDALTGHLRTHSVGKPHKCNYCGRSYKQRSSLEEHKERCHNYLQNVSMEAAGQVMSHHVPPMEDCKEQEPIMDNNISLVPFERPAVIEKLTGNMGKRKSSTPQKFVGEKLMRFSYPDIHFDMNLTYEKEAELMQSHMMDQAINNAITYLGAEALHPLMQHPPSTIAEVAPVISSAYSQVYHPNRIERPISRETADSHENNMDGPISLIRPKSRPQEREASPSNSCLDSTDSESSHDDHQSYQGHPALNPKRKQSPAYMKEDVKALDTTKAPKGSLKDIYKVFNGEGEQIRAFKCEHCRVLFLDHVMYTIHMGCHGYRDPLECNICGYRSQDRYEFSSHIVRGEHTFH
IKZF2, sequence (Q96SW2 whole entry): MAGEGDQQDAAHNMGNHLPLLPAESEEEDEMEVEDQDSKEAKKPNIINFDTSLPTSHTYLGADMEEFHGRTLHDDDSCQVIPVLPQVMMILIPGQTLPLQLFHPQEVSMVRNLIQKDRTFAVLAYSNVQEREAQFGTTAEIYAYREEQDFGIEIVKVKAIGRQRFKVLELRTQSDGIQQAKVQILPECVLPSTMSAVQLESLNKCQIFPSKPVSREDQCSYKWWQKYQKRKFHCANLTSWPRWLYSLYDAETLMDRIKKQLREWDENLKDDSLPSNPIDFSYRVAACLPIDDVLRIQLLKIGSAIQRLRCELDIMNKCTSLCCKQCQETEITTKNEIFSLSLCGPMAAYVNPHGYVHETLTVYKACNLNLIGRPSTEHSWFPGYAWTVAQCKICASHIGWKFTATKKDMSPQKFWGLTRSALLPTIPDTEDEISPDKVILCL
IKZF2, sequence (Q16531 whole entry partner): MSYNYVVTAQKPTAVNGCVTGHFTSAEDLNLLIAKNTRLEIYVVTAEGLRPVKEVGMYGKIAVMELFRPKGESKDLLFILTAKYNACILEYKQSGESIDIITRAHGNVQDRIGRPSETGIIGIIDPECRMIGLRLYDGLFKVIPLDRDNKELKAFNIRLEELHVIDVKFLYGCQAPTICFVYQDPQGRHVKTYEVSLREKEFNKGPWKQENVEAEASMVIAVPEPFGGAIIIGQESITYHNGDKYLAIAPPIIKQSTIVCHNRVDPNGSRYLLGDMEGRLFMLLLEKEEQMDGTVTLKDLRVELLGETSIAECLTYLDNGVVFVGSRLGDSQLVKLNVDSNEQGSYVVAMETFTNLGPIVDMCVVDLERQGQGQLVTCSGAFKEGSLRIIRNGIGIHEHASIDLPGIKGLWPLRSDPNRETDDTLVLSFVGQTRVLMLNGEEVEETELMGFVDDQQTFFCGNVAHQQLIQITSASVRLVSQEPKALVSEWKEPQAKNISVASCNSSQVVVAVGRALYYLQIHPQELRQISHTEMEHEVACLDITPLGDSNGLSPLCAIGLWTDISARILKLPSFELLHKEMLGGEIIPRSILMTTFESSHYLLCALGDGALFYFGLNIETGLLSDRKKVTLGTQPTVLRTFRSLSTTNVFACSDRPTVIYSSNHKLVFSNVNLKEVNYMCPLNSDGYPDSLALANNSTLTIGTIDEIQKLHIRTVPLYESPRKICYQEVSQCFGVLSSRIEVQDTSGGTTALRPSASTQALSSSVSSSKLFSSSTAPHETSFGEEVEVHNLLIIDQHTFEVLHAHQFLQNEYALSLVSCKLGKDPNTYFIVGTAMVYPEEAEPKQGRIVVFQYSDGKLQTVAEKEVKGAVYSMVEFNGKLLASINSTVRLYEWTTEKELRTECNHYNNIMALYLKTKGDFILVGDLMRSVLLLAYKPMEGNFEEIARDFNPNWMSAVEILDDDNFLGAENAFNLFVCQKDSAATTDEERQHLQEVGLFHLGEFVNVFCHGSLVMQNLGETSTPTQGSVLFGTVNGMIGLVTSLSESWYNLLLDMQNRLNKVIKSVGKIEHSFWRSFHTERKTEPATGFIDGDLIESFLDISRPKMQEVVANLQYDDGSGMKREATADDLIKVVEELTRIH

Some results are limits rather than exact numbers.

T1 sequence (Q13422 whole entry): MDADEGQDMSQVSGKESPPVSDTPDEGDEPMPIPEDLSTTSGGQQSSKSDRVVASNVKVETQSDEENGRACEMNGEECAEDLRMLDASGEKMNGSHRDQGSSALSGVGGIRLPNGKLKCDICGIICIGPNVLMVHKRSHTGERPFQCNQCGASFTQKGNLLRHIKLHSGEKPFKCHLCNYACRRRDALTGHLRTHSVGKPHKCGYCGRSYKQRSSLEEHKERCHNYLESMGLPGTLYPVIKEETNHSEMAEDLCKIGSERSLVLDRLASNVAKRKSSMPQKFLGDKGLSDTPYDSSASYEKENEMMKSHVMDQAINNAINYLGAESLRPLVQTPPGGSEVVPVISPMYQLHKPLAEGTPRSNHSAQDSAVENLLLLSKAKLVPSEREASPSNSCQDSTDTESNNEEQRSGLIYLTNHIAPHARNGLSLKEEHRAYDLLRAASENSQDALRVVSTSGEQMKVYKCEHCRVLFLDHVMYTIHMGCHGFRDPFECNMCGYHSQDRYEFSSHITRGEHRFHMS
T1 sequence (Q96SW2 whole entry): as the sequence (Q96SW2 whole entry) above
T1 sequence (Q16531 whole entry partner): as the sequence (Q16531 whole entry partner) above

Turning to `N#Cc1ccc(CN[C@H]2CCCC[C@@H]2Cc2ccc3c(c2)CN(C2CCC(=O)NC2=O)C3=O)c(F)c1` (stereo partly drawn) [Example 17, 4-((((1S,2R)-2-((2-(2,6-dioxopiperidin-3-yl)-1-oxoisoindolin-5-yl)methyl)cyclohexyl)amino)methyl)-3-fluorobenzonitrile], the DC50 on IKZF1 is more than 1000 nM; at IKZF2 it was 70 nM. Moreover, the Dmax on IKZF2 worked out at 77%.
The like results for `O=C1CCC(N2Cc3cc(C[C@H]4CCCC[C@@H]4NCc4c(F)cccc4F)ccc3C2=O)C(=O)N1` (stereo partly drawn) [Example 18, 3-(5-(((1R,2S)-2-((2,6-difluorobenzyl)amino)cyclohexyl)methyl)-1-oxoisoindolin-2-yl)piperidine-2,6-dione] were, in that order, more than 1000 nM, 42 nM and 89%.
Taken in the same sequence, the figures for `O=C1CCC(N2Cc3cc(C[C@H]4CCCC[C@@H]4NCc4ccc(F)cc4F)ccc3C2=O)C(=O)N1` (stereo partly drawn) [Example 19, 3-(5-(((1R,2S)-2-((2,4-difluorobenzyl)amino)cyclohexyl)methyl)-1-oxoisoindolin-2-yl)piperidine-2,6-dione] were more than 1000 nM, 30 nM and 89%.
For the compound `N#Cc1ccc(CN[C@H]2CCCC[C@@H]2Cc2ccc3c(c2)CN(C2CCC(=O)NC2=O)C3=O)cc1` (stereo partly drawn) [Example 20, 4-((((1S,2R)-2-((2-(2,6-dioxopiperidin-3-yl)-1-oxoisoindolin-5-yl)methyl)cyclohexyl)amino)methyl)benzonitrile], at IKZF1, the Dmax worked out at 35% and the DC50 amounted to 99 nM. For the same compound, at IKZF2, the Dmax turned out to be 94% and the DC50 came to 19 nM.
`CN(Cc1ccccc1)[C@H]1CCCC[C@@H]1Cc1ccc2c(c1)CN(C1CCC(=O)NC1=O)C2=O` (stereo partly drawn) [Example 21, 3-(5-(((1R,2S)-2-(benzyl(methyl)amino)cyclohexyl)methyl)-1-oxoisoindolin-2-yl)piperidine-2,6-dione]: the DC50 is more than 1000 nM on IKZF1 and 409 nM at IKZF2. Moreover, the maximal degradation (Dmax) on IKZF2 amounted to 49%.
The like results for `O=C1CCC(N2Cc3cc(C[C@H]4CCCC[C@@H]4NCc4cc(F)ccc4F)ccc3C2=O)C(=O)N1` (stereo partly drawn) [Example 22, 3-(5-(((1R,2S)-2-((2,5-difluorobenzyl)amino)cyclohexyl)methyl)-1-oxoisoindolin-2-yl)piperidine-2,6-dione] were, in that order, more than 1000 nM, 34 nM and 86%.
Taken in the same sequence, the figures for `[2H]c1c([2H])c([2H])c(CN(Cc2c([2H])c([2H])c([2H])c([2H])c2[2H])[C@H]2CCCC[C@@H]2Cc2ccc3c(c2)CN(C2CCC(=O)NC2=O)C3=O)c([2H])c1[2H]` (stereo partly drawn) [Example 26, 3-(5-(((1R,2S)-2-(bis((phenyl-d5)methyl)amino)cyclohexyl)methyl)-1-oxoisoindolin-2-yl)piperidine-2,6-dione] were more than 1000 nM, 530 nM and 57%.
In the case of `CC1(C)CCC(N[C@H]2CCCC[C@@H]2Cc2ccc3c(c2)CN(C2CCC(=O)NC2=O)C3=O)CC1` (stereo partly drawn) [Example 27, 3-(5-(((1R,2S)-2-((4,4-dimethylcyclohexyl)amino)cyclohexyl)methyl)-1-oxoisoindolin-2-yl)piperidine-2,6-dione], the values for the Dmax at IKZF1 and on IKZF2 were 27% and 97%, respectively. Further, the results for the DC50 on IKZF1 and at IKZF2 were 70 nM and 3 nM, respectively.
The like results for `O=C1CCC(N2Cc3cc(C[C@H]4CCCC[C@@H]4NC4CC5CC(C5)C4)ccc3C2=O)C(=O)N1` (stereo partly drawn) [Example 29, 3-(5-(((1R,2S)-2-(bicyclo[3.1.1]heptan-3-ylamino)cyclohexyl)methyl)-1-oxoisoindolin-2-yl)piperidine-2,6-dione] were, in that order, 39%, 96%, 574 nM and 5 nM.
In the case of `O=C1CCC(N2Cc3cc(C[C@H]4CCCC[C@@H]4N4CC(Oc5ccccc5Cl)C4)ccc3C2=O)C(=O)N1` (stereo partly drawn) [Example 30, 3-(5-(((1R,2S)-2-(3-(2-chlorophenoxy)azetidin-1-yl)cyclohexyl)methyl)-1-oxoisoindolin-2-yl)piperidine-2,6-dione], at IKZF1, the Dmax stood at 34% and the DC50 amounted to 42 nM. At IKZF2, the Dmax was found to be 81% and the DC50 turned out to be 29 nM.
On to `CCOC1CN([C@H]2CCCC[C@@H]2Cc2ccc3c(c2)CN(C2CCC(=O)NC2=O)C3=O)C1` (stereo partly drawn) [Example 31, 3-(5-(((1R,2S)-2-(3-ethoxyazetidin-1-yl)cyclohexyl)methyl)-1-oxoisoindolin-2-yl)piperidine-2,6-dione], for which the DC50 at IKZF1 is more than 1000 nM. Moreover, on IKZF2, the Dmax stood at 85% and the DC50 amounted to 30 nM.
The like results for `O=C1CCC(N2Cc3cc(C[C@H]4CCCC[C@@H]4N4CC(Oc5ccccc5)C4)ccc3C2=O)C(=O)N1` (stereo partly drawn) [Example 32, 3-(1-oxo-5-(((1R,2S)-2-(3-phenoxyazetidin-1-yl)cyclohexyl)methyl)isoindolin-2-yl)piperidine-2,6-dione] were, in that order, more than 1000 nM, 90% and 21 nM.
For the compound `O=C1CCC(N2Cc3cc(C[C@H]4CCCC[C@@H]4N4CC(OCc5ccccc5)C4)ccc3C2=O)C(=O)N1` (stereo partly drawn) [Example 33, 3-(5-(((1R,2S)-2-(3-(benzyloxy)azetidin-1-yl)cyclohexyl)methyl)-1-oxoisoindolin-2-yl)piperidine-2,6-dione], at IKZF1, the DC50 was more than 1000 nM. Besides, at IKZF2, the Dmax worked out at 82% and the DC50 was found to be 18 nM.
Consider `O=C1CCC(N2Cc3cc(C[C@H]4CCCC[C@@H]4N4CC5(CN(Cc6ccccc6Cl)C5)C4)ccc3C2=O)C(=O)N1` (stereo partly drawn) [Example 34, 3-(5-(((1R,2S)-2-(6-(2-chlorobenzyl)-2,6-diazaspiro[3.3]heptan-2-yl)cyclohexyl)methyl)-1-oxoisoindolin-2-yl)piperidine-2,6-dione], for which the Dmax at IKZF1 turned out to be 29%; on IKZF2, 80%. For the same compound, the DC50 on IKZF1 turned out to be 51 nM; on IKZF2, 28 nM.
In the case of `O=C1CCC(N2Cc3cc(C[C@H]4CCCC[C@@H]4NCc4cscn4)ccc3C2=O)C(=O)N1` (stereo partly drawn) [Example 36, 3-(1-oxo-5-(((1R,2S)-2-((thiazol-4-ylmethyl)amino)cyclohexyl)methyl)isoindolin-2-yl)piperidine-2,6-dione], the values for the Dmax on IKZF1 and on IKZF2 were 33% and 89%, respectively. Further, the DC50 at IKZF1 turned out to be 101 nM; on IKZF2, 46 nM.
Regarding `O=C1CCC(N2Cc3cc(C[C@H]4CCCC[C@@H]4NCc4nccs4)ccc3C2=O)C(=O)N1` (stereo partly drawn) [Example 37, 3-(1-oxo-5-(((1R,2S)-2-((thiazol-2-ylmethyl)amino)cyclohexyl)methyl)isoindolin-2-yl)piperidine-2,6-dione], the DC50 on IKZF1 was more than 1000 nM. For the same compound, at IKZF2, the Dmax came out at 69% and the DC50 is 172 nM.
Taken in the same sequence, the figures for `Cn1ccc(CN[C@H]2CCCC[C@@H]2Cc2ccc3c(c2)CN(C2CCC(=O)NC2=O)C3=O)n1` (stereo partly drawn) [Example 38, 3-(5-(((1R,2S)-2-(((1-methyl-1H-pyrazol-3-yl)methyl)amino)cyclohexyl)methyl)-1-oxoisoindolin-2-yl)piperidine-2,6-dione] were more than 1000 nM, 97% and 192 nM.
As for `Cn1nccc1CN[C@H]1CCCC[C@@H]1Cc1ccc2c(c1)CN(C1CCC(=O)NC1=O)C2=O` (stereo partly drawn) [Example 39, 3-(5-(((1R,2S)-2-(((1-methyl-1H-pyrazol-5-yl)methyl)amino)cyclohexyl)methyl)-1-oxoisoindolin-2-yl)piperidine-2,6-dione], on IKZF1, the Dmax was found to be 34% and the DC50 amounted to 265 nM. Moreover, at IKZF2, the Dmax worked out at 86% and the DC50 came to 47 nM.
Turning to `O=C1CCC(N2Cc3cc(C[C@H]4CCCC[C@@H]4NCc4ccncc4)ccc3C2=O)C(=O)N1` (stereo partly drawn) [Example 40, 3-(1-oxo-5-(((1R,2S)-2-((pyridin-4-ylmethyl)amino)cyclohexyl)methyl)isoindolin-2-yl)piperidine-2,6-dione], the DC50 on IKZF1 was more than 1000 nM; at IKZF2 it was 45 nM. This compound also returned a Dmax at IKZF2 of 81%.
Turning to `O=C1CCC(N2Cc3cc(C[C@H]4CCCC[C@@H]4NCc4cccnc4)ccc3C2=O)C(=O)N1` (stereo partly drawn) [Example 41, 3-(1-oxo-5-(((1R,2S)-2-((pyridin-3-ylmethyl)amino)cyclohexyl)methyl)isoindolin-2-yl)piperidine-2,6-dione], the Dmax came out at 44% on IKZF1 and 90% at IKZF2. Further, the DC50 at IKZF1 was 216 nM; on IKZF2, 24 nM.
In the case of `Cn1cc(CN[C@H]2CCCC[C@@H]2Cc2ccc3c(c2)CN(C2CCC(=O)NC2=O)C3=O)cn1` (stereo partly drawn) [Example 42, 3-(5-(((1R,2S)-2-(((1-methyl-1H-pyrazol-4-yl)methyl)amino)cyclohexyl)methyl)-1-oxoisoindolin-2-yl)piperidine-2,6-dione], the DC50 is more than 1000 nM on IKZF1 and 126 nM on IKZF2. Also, on IKZF2, the Dmax was found to be 78%.
As to `O=C1CCC(N2Cc3cc(C[C@H]4CCCC[C@@H]4NCc4c(F)cncc4F)ccc3C2=O)C(=O)N1` (stereo partly drawn) [Example 43, 3-(5-(((1R,2S)-2-(((3,5-difluoropyridin-4-yl)methyl)amino)cyclohexyl)methyl)-1-oxoisoindolin-2-yl)piperidine-2,6-dione], the results for the DC50 on IKZF1 and on IKZF2 were more than 1000 nM and 91 nM, respectively. In addition, on IKZF2, the Dmax was determined as 45%.
Taken in the same sequence, the figures for `O=C1CCC(N2Cc3cc(C[C@H]4CCCC[C@@H]4NCc4ncc(F)cc4F)ccc3C2=O)C(=O)N1` (stereo partly drawn) [Example 44, 3-(5-(((1R,2S)-2-(((3,5-difluoropyridin-2-yl)methyl)amino)cyclohexyl)methyl)-1-oxoisoindolin-2-yl)piperidine-2,6-dione] were more than 1000 nM, 67 nM and 60%.

What is called Dmax is the largest share of the target that was removed. The low end stands for a partial loss of target, the high end for a fuller loss of target.
